Experimental data from US9708314B2, “Heterocyclic amide compound” (NISSAN CHEMICAL INDUSTRIES, LTD., priority 2013, dated 2017).

What was measured:
Format in all cases: in vivo
[1] = system: Leptochloa chinensis; assay: Test Example 3: herbicidal effect by application to foliage (Wagner pot, water depth 0.1-0.5 cm); conditions: Nineteenth Table; application to foliage; application herbicide amount 320 g/ha
Summary of the method: (§1)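 Three weeks after spraying, each species was graded 0–5 for herbicidal ratio, 5 being 90% or more. Application: water-diluted emulsifiable concentrate at a fixed g/ha to foliage of 14-day-old greenhouse (25–30 °C) plants in alluvial soil.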

[2] = system: Echinochloa crus-galli var. crus-galli; assay: as above; conditions: Nineteenth Table; application to foliage; application herbicide amount 320 g/ha
Summary of the method: as §1

[3] = system: Brassica campestris L.; assay: Test Example 4: effect on crop by application to foliage (diluvial soil, plastic box); conditions: application to foliage, application herbicide amount 320 g/ha
Summary of the method: (§2)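 Plants were grown in sterilized diluvial soil in a greenhouse at 25-30° C for 14 days, then sprayed on stems and leaves with water-diluted emulsion formulation at set rates in g/ha. Weed control and crop injury were scored 3 weeks after treatment on a 0-5 herbicidal-ratio scale, from 0 (≤5%) to 5 (≥90%).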

[4] = system: Zea mays; assay: as above; conditions: application to foliage, application herbicide amount 320 g/ha
Summary of the method: as §2

[5] = system: Beta vulgaris ssp. vulgaris; assay: as above; conditions: application to foliage, application herbicide amount 320 g/ha
Summary of the method: as §2

[6] = system: Triticum aestivum; assay: as above; conditions: application to foliage, application herbicide amount 320 g/ha
Summary of the method: as §2

[7] = system: Glycine max; assay: as above; conditions: application to foliage, application herbicide amount 320 g/ha
Summary of the method: as §2

[8] = system: directly sowed Oryza sativa; assay: as above; conditions: application to foliage, application herbicide amount 320 g/ha
Summary of the method: as §2

[9] = system: Stellaria media; assay: Test Example 4: herbicidal effect by application to foliage (diluvial soil, plastic box); conditions: application to foliage, application herbicide amount 320 g/ha
Summary of the method: as §2

[10] = system: Lolium multiflorum Lam.; assay: as above; conditions: application to foliage, application herbicide amount 320 g/ha
Summary of the method: as §2

[11] = system: Echinochloa crus-galli var. crus-galli; assay: as above; conditions: application to foliage, application herbicide amount 320 g/ha
Summary of the method: as §2

[12] = system: Alopecurus myosuroides; assay: as above; conditions: application to foliage, application herbicide amount 320 g/ha
Summary of the method: as §2

[13] = system: Avena fatua; assay: as above; conditions: application to foliage, application herbicide amount 320 g/ha
Summary of the method: as §2

[14] = system: Setaria viridis; assay: as above; conditions: application to foliage, application herbicide amount 320 g/ha
Summary of the method: as §2

[15] = system: Chenopodium album; assay: as above; conditions: application to foliage, application herbicide amount 320 g/ha
Summary of the method: as §2

[16] = system: Abutilon theophrasti; assay: as above; conditions: application to foliage, application herbicide amount 320 g/ha
Summary of the method: as §2

[17] = system: Digitaria ciliaris; assay: as above; conditions: application to foliage, application herbicide amount 320 g/ha
Summary of the method: as §2

[18] = system: Galium spurium; assay: as above; conditions: application to foliage, application herbicide amount 320 g/ha
Summary of the method: as §2

[19] = system: Veronica persica; assay: as above; conditions: application to foliage, application herbicide amount 320 g/ha
Summary of the method: as §2

[20] = system: Apera spica-venti.; assay: as above; conditions: application to foliage, application herbicide amount 320 g/ha
Summary of the method: as §2

[21] = system: Amaranthus retroflexus; assay: as above; conditions: application to foliage, application herbicide amount 320 g/ha
Summary of the method: as §2

Structure (SMILES)	D (herbicidal effect grade) [1]	H (herbicidal effect grade) [2]	g: effect on crop, Brassica campestris L. [3]	c: effect on crop, Zea mays [4]	f: effect on crop, Beta vulgaris ssp. vulgaris [5]	e: effect on crop, Triticum aestivum [6]	d: effect on crop, Glycine max [7]	b: effect on crop, directly sowed Oryza sativa [8]	P: herbicidal effect on Stellaria media [9]	K: herbicidal effect on Lolium multiflorum Lam. [10]	H: herbicidal effect on Echinochloa crus-galli var. crus-galli [11]	J: herbicidal effect on Alopecurus myosuroides [12]	I: herbicidal effect on Avena fatua [13]	G: herbicidal effect on Setaria viridis [14]	O: herbicidal effect on Chenopodium album [15]	M: herbicidal effect on Abutilon theophrasti [16]	F: herbicidal effect on Digitaria ciliaris [17]	Q: herbicidal effect on Galium spurium [18]	R: herbicidal effect on Veronica persica [19]	L: herbicidal effect on Apera spica-venti. [20]	further results
Cc1nnc(NC(=O)c2ccc(C(F)(F)F)n3c(CC#N)nnc23)o1 [1-168]	3 (Herbicidal ratio of 40% or more and less than 70%)	4 (Herbicidal ratio of 70% or more and less than 90%)	3 (Herbicidal ratio of 40% or more and less than 70%)	0 (Herbicidal ratio of 5% or less (almost no effect))	5 (Herbicidal ratio of 90% or more (almost completely withered))	1 (Herbicidal ratio of 5% or more and less than 20%)	3 (Herbicidal ratio of 40% or more and less than 70%)	3 (Herbicidal ratio of 40% or more and less than 70%)	5 (Herbicidal ratio of 90% or more (almost completely withered))	1 (Herbicidal ratio of 5% or more and less than 20%)	5 (Herbicidal ratio of 90% or more (almost completely withered))	0 (Herbicidal ratio of 5% or less (almost no effect))	1 (Herbicidal ratio of 5% or more and less than 20%)	4 (Herbicidal ratio of 70% or more and less than 90%)	5 (Herbicidal ratio of 90% or more (almost completely withered))	3 (Herbicidal ratio of 40% or more and less than 70%)	5 (Herbicidal ratio of 90% or more (almost completely withered))	1 (Herbicidal ratio of 5% or more and less than 20%)	5 (Herbicidal ratio of 90% or more (almost completely withered))	0 (Herbicidal ratio of 5% or less (almost no effect))	N: herbicidal effect on Amaranthus retroflexus [21]: 3 (Herbicidal ratio of 40% or more and less than 70%)
COCCc1nnc2c(C(=O)Nc3nnc(C)o3)ccc(C(F)(F)F)n12 [1-173]	4 (Herbicidal ratio of 70% or more and less than 90%)	5 (Herbicidal ratio of 90% or more (almost completely withered))	4 (Herbicidal ratio of 70% or more and less than 90%)	0 (Herbicidal ratio of 5% or less (almost no effect))	5 (Herbicidal ratio of 90% or more (almost completely withered))	1 (Herbicidal ratio of 5% or more and less than 20%)	4 (Herbicidal ratio of 70% or more and less than 90%)	3 (Herbicidal ratio of 40% or more and less than 70%)	5 (Herbicidal ratio of 90% or more (almost completely withered))	1 (Herbicidal ratio of 5% or more and less than 20%)	5 (Herbicidal ratio of 90% or more (almost completely withered))	1 (Herbicidal ratio of 5% or more and less than 20%)	2 (Herbicidal ratio of 20% or more and less than 40%)	3 (Herbicidal ratio of 40% or more and less than 70%)	5 (Herbicidal ratio of 90% or more (almost completely withered))	5 (Herbicidal ratio of 90% or more (almost completely withered))	4 (Herbicidal ratio of 70% or more and less than 90%)	4 (Herbicidal ratio of 70% or more and less than 90%)	4 (Herbicidal ratio of 70% or more and less than 90%)	1 (Herbicidal ratio of 5% or more and less than 20%)	N: herbicidal effect on Amaranthus retroflexus [21]: 5 (Herbicidal ratio of 90% or more (almost completely withered))
